Measured values published in ChEMBL document CHEMBL3132769, “Fragment growing to retain or alter the selectivity of anchored kinase hinge-binding fragments” (Medchemcomm, 2014).

Tests used:
[1] = target: Aurora kinase B (Homo sapiens) (UniProt Q96GD4); assay: Inhibition of human full length AurB expressed in baculovirus assessed as substrate phosphorylation using fluorescence-labelled peptides as substrate at 9 uM after 90 mins by microfluidic peptide phosphorylation assay
[2] = system: Tyrosine-protein kinase ABL1 (Homo sapiens), P00519 [T315I]; assay: Inhibition of human truncated ABL T315I mutant expressed in baculovirus assessed as substrate phosphorylation using fluorescence-labelled peptides as substrate at 95 uM after 90 mins by microfluidic peptide phosphorylation assay
[3] = target: T1, Inhibitor of nuclear factor kappa-B kinase subunit beta (Homo sapiens) (UniProt O14920); assay: Inhibition of human full length IKK beta expressed in baculovirus assessed as substrate phosphorylation using fluorescence-labelled peptides as substrate at 0.06 uM after 90 mins by microfluidic peptide phosphorylation assay
T1 sequence (whole entry): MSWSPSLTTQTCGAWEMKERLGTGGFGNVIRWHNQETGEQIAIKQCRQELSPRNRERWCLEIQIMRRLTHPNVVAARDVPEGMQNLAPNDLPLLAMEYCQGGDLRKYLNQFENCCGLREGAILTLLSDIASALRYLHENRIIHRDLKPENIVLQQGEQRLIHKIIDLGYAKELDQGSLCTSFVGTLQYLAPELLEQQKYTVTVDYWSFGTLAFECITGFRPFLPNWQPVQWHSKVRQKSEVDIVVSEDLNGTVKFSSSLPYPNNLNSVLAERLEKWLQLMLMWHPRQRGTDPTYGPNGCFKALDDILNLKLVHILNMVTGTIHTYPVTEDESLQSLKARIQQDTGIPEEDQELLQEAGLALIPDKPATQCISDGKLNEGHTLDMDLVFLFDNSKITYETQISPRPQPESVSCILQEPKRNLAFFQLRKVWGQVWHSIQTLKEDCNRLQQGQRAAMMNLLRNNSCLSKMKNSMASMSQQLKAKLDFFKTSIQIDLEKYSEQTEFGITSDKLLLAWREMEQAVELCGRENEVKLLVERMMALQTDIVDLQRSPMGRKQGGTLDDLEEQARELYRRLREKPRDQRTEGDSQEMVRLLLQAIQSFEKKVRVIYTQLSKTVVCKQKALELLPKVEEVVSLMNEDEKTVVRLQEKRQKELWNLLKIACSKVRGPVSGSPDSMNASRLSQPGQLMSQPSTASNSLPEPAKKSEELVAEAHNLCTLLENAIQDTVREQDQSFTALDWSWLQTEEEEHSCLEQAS

[4] = system: Tyrosine-protein kinase ABL1 (Homo sapiens), P00519 [H396P]; assay: Inhibition of human truncated ABL H396P mutant expressed in baculovirus assessed as substrate phosphorylation using fluorescence-labelled peptides as substrate at 0.06 uM after 90 mins by microfluidic peptide phosphorylation assay
[5] = target: Protein kinase C gamma type (Homo sapiens) (UniProt P05129); assay: Inhibition of human truncated PKC gamma expressed in baculovirus assessed as substrate phosphorylation using fluorescence-labelled peptides as substrate at 0.1 uM after 90 mins by microfluidic peptide phosphorylation assay
[6] = target: Ribosomal protein S6 kinase alpha-1 (Homo sapiens) (UniProt Q15418); assay: Inhibition of human full length RSK1 expressed in baculovirus assessed as substrate phosphorylation using fluorescence-labelled peptides as substrate at […] after 90 mins by microfluidic peptide phosphorylation assay
Sequence of Ribosomal protein S6 kinase alpha-1 (Homo sapiens) (Q15418 whole entry): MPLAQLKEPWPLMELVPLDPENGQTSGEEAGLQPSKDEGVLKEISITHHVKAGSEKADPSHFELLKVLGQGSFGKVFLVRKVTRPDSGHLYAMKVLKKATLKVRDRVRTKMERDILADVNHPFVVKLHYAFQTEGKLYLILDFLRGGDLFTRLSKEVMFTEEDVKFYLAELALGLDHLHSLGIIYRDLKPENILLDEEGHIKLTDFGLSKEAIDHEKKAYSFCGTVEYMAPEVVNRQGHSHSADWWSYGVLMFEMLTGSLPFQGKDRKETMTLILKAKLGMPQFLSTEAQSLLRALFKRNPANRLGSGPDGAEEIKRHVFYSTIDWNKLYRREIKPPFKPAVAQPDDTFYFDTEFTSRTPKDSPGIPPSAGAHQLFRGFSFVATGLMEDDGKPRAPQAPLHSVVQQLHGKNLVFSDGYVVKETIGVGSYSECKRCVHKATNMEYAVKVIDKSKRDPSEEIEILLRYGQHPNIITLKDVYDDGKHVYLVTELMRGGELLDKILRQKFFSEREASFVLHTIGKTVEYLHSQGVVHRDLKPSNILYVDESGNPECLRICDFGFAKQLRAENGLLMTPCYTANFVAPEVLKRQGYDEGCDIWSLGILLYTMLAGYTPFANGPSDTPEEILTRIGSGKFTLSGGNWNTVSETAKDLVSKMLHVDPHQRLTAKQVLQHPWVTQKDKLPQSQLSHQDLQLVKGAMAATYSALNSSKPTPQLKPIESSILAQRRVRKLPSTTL

[7] = target: T2, Serine/threonine-protein kinase DCLK2 (Homo sapiens) (UniProt Q8N568); assay: Inhibition of human full length DCAMKL2 expressed in baculovirus assessed as substrate phosphorylation using fluorescence-labelled peptides as substrate at 420 uM after 90 mins by microfluidic peptide phosphorylation assay
T2 sequence (whole entry): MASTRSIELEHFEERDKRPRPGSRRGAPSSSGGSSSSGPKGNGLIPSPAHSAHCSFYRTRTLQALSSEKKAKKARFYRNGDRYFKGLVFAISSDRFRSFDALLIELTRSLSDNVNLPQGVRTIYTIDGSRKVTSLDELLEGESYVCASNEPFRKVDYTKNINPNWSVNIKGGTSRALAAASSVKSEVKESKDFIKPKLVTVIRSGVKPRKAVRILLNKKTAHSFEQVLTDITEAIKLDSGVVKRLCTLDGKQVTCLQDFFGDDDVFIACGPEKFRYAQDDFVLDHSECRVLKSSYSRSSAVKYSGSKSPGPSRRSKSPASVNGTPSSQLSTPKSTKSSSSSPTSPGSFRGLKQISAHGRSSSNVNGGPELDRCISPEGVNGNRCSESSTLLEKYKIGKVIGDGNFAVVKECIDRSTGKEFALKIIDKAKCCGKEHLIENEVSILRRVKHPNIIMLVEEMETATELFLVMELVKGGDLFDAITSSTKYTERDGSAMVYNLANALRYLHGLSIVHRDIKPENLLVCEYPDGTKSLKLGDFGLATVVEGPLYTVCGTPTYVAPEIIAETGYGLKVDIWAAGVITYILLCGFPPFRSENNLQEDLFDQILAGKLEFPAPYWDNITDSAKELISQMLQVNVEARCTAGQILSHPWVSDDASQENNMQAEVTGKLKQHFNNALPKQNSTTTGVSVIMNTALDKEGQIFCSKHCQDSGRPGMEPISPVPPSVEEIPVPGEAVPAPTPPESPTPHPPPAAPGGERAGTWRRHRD

[8] = target: Glycogen synthase kinase-3 beta (Homo sapiens) (UniProt P49841); assay: Inhibition of human full length GSK-3 beta expressed in baculovirus assessed as substrate phosphorylation using fluorescence-labelled peptides as substrate at 0.2 uM after 90 mins by microfluidic peptide phosphorylation assay
Sequence of Glycogen synthase kinase-3 beta (Homo sapiens) (P49841 whole entry, looked up): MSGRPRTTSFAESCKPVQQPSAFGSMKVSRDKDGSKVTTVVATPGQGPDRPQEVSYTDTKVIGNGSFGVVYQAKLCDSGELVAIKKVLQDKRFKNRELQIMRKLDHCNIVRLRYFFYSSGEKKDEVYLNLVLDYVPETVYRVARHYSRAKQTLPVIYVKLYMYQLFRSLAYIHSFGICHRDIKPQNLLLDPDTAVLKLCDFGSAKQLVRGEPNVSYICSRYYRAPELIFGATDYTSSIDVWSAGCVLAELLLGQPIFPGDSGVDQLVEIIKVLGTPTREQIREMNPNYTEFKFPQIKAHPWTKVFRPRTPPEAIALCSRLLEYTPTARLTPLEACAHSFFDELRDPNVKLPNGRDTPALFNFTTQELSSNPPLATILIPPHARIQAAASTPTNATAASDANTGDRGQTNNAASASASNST

[9] = target: Tyrosine-protein kinase BTK (Homo sapiens) (UniProt Q06187); assay: Inhibition of human full length BTK expressed in baculovirus assessed as substrate phosphorylation using fluorescence-labelled peptides as substrate at 2 uM after 90 mins by microfluidic peptide phosphorylation assay
Sequence of Tyrosine-protein kinase BTK (Homo sapiens) (Q06187 whole entry, the tested form may be a part): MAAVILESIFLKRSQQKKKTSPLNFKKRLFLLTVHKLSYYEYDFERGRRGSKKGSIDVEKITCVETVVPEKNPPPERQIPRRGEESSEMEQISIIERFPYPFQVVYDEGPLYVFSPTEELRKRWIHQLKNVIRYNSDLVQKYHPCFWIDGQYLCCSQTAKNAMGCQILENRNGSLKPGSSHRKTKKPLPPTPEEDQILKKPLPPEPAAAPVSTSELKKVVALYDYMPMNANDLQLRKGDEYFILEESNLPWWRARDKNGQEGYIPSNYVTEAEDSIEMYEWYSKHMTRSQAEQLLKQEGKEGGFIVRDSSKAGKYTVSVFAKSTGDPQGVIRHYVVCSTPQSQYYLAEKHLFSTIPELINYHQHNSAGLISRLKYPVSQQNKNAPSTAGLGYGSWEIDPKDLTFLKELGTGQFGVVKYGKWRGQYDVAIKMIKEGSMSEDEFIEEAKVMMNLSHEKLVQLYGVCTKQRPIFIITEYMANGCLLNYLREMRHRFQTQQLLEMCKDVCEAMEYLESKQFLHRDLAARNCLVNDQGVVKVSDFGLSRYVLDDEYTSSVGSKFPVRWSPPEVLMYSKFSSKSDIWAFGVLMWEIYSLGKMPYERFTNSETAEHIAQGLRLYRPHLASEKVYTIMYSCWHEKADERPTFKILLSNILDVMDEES

[10] = target: T3, Serine/threonine-protein kinase Sgk1 (Homo sapiens) (UniProt O00141); assay: Inhibition of human truncated SGK1 expressed in baculovirus assessed as substrate phosphorylation using fluorescence-labelled peptides as substrate at 1000 uM after 90 mins by microfluidic peptide phosphorylation assay
T3 sequence (whole entry): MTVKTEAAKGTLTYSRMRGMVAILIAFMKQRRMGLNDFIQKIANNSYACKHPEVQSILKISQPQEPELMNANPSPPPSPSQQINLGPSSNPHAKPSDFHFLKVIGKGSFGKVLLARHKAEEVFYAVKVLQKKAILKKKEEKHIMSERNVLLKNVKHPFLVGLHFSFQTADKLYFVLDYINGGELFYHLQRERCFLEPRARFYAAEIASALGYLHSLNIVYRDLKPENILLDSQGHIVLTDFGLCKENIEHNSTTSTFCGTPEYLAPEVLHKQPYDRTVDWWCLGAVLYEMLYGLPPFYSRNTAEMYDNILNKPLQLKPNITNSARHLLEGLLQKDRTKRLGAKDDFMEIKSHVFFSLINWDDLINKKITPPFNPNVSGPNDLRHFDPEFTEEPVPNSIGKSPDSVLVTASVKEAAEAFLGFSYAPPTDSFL

Sequence of Aurora kinase B (Homo sapiens) (Q96GD4 whole entry, the tested form may be a part): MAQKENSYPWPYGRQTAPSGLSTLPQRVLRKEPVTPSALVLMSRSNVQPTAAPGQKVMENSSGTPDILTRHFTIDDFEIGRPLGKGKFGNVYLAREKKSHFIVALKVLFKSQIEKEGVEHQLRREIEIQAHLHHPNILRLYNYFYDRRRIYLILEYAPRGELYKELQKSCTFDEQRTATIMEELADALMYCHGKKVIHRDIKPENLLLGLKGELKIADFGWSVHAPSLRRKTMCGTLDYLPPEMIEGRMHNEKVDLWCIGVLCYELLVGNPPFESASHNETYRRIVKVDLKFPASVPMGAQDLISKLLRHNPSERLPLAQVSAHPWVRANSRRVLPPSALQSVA

Compound: NCC1CN(c2ncnc3[nH]c4cnccc4c23)CCO1 (stereo not given)
- inhibition [1]: 31%

Compound: NCCc1ccc(-c2ncnc3[nH]cnc23)cc1
- inhibition [2]: 53%

Compound: NC1(Cc2ccc(Cl)cc2)CCN(c2ncnc3[nH]ccc23)CC1
- inhibition [3]: 2%
- inhibition [4]: 0.5%

Compound: C[C@H](CN(C)C)Oc1nc(Nc2cc3cccc(Cl)c3cn2)cnc1C#N
- inhibition [5]: 6%

Compound: COC(=O)c1cnc(Nc2cnc(C#N)cn2)cc1NCC1CCNCC1
- inhibition [6]: 37%

Compound: c1nc(N2CCOCC2)c2nc[nH]c2n1
- inhibition [7]: 41.5%

Compound: Clc1ccc(C2(c3ccc(-c4ncnc5[nH]cnc45)cc3)CCNCC2)cc1
- inhibition [8]: 3.5%

Compound: NC1CCN(c2ncnc3[nH]ccc23)CC1
- inhibition [9]: 0.5%

Compound: c1cnc2[nH]ccc2c1
- inhibition [10]: 94%
